According to patent US20150175556A1, “DIHYDROPYRIMIDIN-2(1H)-ONES AND DIHYDROPYRIMIDIN-2(1H)-THIONES AS INHIBITORS OF SODIUM IODIDE SYMPORTER” (COMMISSARIAT A L'ENERGIE ATOMIQUE ET AUX ENERGIES …, priority 2012, published 2015):
Where two headings read alike, the source gives them in different places.

What was measured:
[1] = biological target: T1, sodium iodide symporter (NIS), iodide uptake in FRTL5 cells (Rattus norvegicus, UniProt Q63008); assay: Inhibition of iodide uptake in FRTL5 cells, non radioactive arsenic/cerium assay; type: cell-based
T1 construct: endogenous in cells; host or cells: FRTL5 (rat thyroid-derived cells)
T1 sequence (Q63008 1-618): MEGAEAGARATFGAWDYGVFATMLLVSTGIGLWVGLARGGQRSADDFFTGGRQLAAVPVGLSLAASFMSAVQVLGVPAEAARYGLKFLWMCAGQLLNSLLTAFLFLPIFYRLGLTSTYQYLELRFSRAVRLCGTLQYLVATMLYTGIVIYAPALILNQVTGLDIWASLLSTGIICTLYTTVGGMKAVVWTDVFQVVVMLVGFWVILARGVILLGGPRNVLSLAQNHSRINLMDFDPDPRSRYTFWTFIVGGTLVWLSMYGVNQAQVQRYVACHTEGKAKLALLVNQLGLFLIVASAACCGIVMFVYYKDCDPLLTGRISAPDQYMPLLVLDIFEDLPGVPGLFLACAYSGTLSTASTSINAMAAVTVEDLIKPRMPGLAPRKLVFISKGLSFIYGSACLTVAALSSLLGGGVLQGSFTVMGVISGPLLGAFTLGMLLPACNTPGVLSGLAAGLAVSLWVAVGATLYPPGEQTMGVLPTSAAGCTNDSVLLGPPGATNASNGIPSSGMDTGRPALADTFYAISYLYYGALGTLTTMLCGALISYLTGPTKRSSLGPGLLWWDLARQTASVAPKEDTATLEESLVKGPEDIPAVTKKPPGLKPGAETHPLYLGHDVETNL
Procedure: Some of the synthesized compounds were evaluated for their ability to inhibit iodide entrapment in FRTL5 cells. The IC50 values were measured in at least […] independent experiments.
The biological activity of each compound was determined in FRTL5 cells, using a non radioactive arsenic/cerium assay as described in F. Waltz et al., Anal. Biochem., 2012, 396, 91-95. Compound potency was expressed as IC50, the concentration of compound necessary to achieve 50% inhibition of iodide uptake. Briefly, to FRTL5 cells at 70-90% confluence was added compound (200 μM, 10 μM, 0.5 μM, 25 nM, 1.2 nM, 60 pM, […], and 0.15 pM final), followed by NaI (10 μM final). After 1 hour incubation at 20±1° C., supernatant was removed and the cells were immediately assayed for iodide content using the modified As/Ce Sandell-Kolthoff reaction. NaClO4 was tested in each microplate as assay controls. The IC50 values of all compounds were measured least thrice independently.
Stock solutions of tested compounds were prepared in DMSO (20 mM) and that of NaClO4 in water (20 mM). These stock solutions were stored at 4° C. for up to 2 months. Sample dilutions: the day of the assay, a daughter plate (clear flat-bottomed 96-well polystyrene microplates, Costar 9017) was prepared from 20 mM stock solutions. NaClO4 (column 2) and DHPM samples (columns 4 to 11) were diluted at 10× the final concentration in uptake buffer.
FRTL5 cells were cultured as described in F. S. Ambesi-Impiombato et al., Proc. Natl. Acad. Sci. USA, 1980, 77, 3455-3459. Briefly, FRTL5 cells were cultured in Coon's modified F12 medium supplemented with 5% heat-inactivated fetal bovine serum (Invitrogen), 2 mM L-glutamine, 100 U/mL penicillin, 0.1 mg/mL streptomycin, 10 μg/mL insulin, 10 nM hydrocortisone, 10 ng/mL Gly-His-Lys acetate, 1 mU/mL TSH, 5 μg/mL transferrin at 37° C. and 5% CO2. For iodide uptake assays, 200 μL of FRTL5 cells with density of 250,000 cells/mL were dispensed in each well of clear flat-bottomed 96-well polystyrene microplates (Costar 3628) using the Multidrop 384 (ThermoFisher Scientific), and further cultured until confluence reached 80-90% (3-4 days).
The culture medium of FRTL5 monolayer cells at 80-90% confluence was replaced by uptake buffer (20° C.) via continuous aspiration/dispense cycle (600 μL) using a 96-needle head plate washer PW 384 (Tecan). The 96-needle head was set to a vertical position such that 80 μL of fresh uptake buffer remained in each well at the end of the cycle. The samples (10 μL each) from the daughter plate were transferred all at once to the assay plate using the 96-tip head pipettor Liquidator 96 (Mettler Toledo). Immediately after, 10 μL of a NaI solution at 100 μM was added to each well of the assay plate using the Liquidator 96. The assay plate was left to stand in the dark at 20±1° C. for 60 min. The assay plate was then washed with cold (4° C.) uptake buffer using the PW 384 plate washer and residual supernatant was immediately discarded by inverting the assay plate on absorbent paper.
Sodium iodide standards (S1 to S7) and water (S0) were distributed in duplicate (100 μL each) in the first and last column of the assay plate. Water (100 μL) was added to the columns with the Multidrop 384. 100 μL of the ammonium cerium (IV) sulfate solution (10.5 mM) was distributed into the columns, followed by 100 μL of the sodium arsenite (III) solution (24 mM) using the Multidrop 384. The assay plate was left to stand at 20±1° C. for 30 min. The absorbance at 420 nm (Abs420) was immediately recorded on a SpectraMax Plus 384 (Molecular Devices). A calibration curve was prepared for each plate by plotting the logarithmic conversion of the means of Abs420 (n=2) vs iodide standard concentrations (S0 to S7). The iodide concentrations in the samples were determined after linear regression of the calibration curve.

[2] = Table 3, variations at R2, averaged from three or four independent experiments, NaI 10 μM, 1 hour, 20°C, read-out: IC50 (μM), inhibitory activity against iodide uptake in FRTL5 cells
[3] = Table 5, variations at Y, R1, R3, R4, R5, averaged from two to four independent experiments, NaI 10 μM, 1 hour, 20°C, read-out: IC50 (μM), inhibitory activity against iodide uptake in FRTL5 cells
[4] = Table 2, variations at R5, averaged from three or four independent experiments, NaI 10 μM, 1 hour, 20°C, read-out: IC50 (μM), inhibitory activity against iodide uptake in FRTL5 cells
[5] = Table 1, variations at R1, averaged from three or four independent experiments, NaI 10 μM, 1 hour, 20°C, read-out: IC50 (μM), inhibitory activity against iodide uptake in FRTL5 cells
[6] = Table 4, variations at X, R3, R4, averaged from three or four independent experiments, NaI 10 μM, 1 hour, 20°C, read-out: IC50 (μM), inhibitory activity against iodide uptake in FRTL5 cells

IC50 [1, 2] [nM] | melting point [°C] | SMILES | further results
150 | – | COc1ccc(COC(=O)C2=C(Cc3cccs3)NC(=O)NC2c2ccccc2)cc1 (stereo not shown) [Compound 49, 4-Methoxybenzyl 2-oxo-4-phenyl-6-(thiophen-2-ylmethyl)-1,2,3,4-tetrahydropyrimidine-5-carboxylate] | –
– | 155 to 156 | COc1cccc(COC(=O)C2=C(C)N(C)C(=O)NC2c2ccco2)c1 (stereo not shown) [Compound 56, 3-Methoxybenzyl 4-(furan-2-yl)-1,6-dimethyl-2-oxo-1,2,3,4-tetrahydropyrimidine-5-carboxylate] | IC50 [1, 3]: 75 nM
550 | 78 to 80 | COc1ccc(COC(=O)C2=C(c3cccs3)NC(=O)NC2c2ccccc2)cc1 (stereo not shown) [Compound 48, 4-Methoxybenzyl 2-oxo-4-phenyl-6-(thiophen-2-yl)-1,2,3,4-tetrahydropyrimidine-5-carboxylate] | –
– | 134 to 136 | COc1ccc(COC(=O)C2=C(C)N(C)C(=O)NC2c2ccccc2)cc1 (stereo not shown) [Compound 50, 4-Methoxybenzyl 1,6-dimethyl-2-oxo-4-phenyl-1,2,3,4-tetrahydropyrimidine-5-carboxylate] | IC50 [1, 6]: 75 nM
950 | – | COc1ccc(COC(=O)C2=C(c3ccccc3)NC(=O)NC2c2ccccc2)cc1 (stereo not shown) [Compound 44, 4-Methoxybenzyl 4,6-diphenyl-2-oxo-1,2,3,4-tetrahydropyrimidine-5-carboxylate] | –
500 | – | COc1ccc(COC(=O)C2=C(COc3ccccc3)NC(=O)NC2c2ccccc2)cc1 (stereo not shown) [Compound 46, 4-Methoxybenzyl 2-oxo-6-phenoxymethyl-4-phenyl-1,2,3,4-tetrahydropyrimidine-5-carboxylate] | –

The next lines start with the compound.

SMILES | IC50 [1, 2] [nM] | melting point [°C] | further results
CCCCCC1=C(C(=O)OCc2ccc(OC)cc2)C(c2ccccc2)NC(=O)N1 (stereo not shown) [Compound 42, 4-Methoxybenzyl 2-oxo-6-pentyl-4-phenyl-1,2,3,4-tetrahydropyrimidine-5-carboxylate] | 350 | – | –
CC1=C(C(=O)OCc2ccccc2C)C(c2ccccc2)NC(=O)N1 (stereo not shown) [Compound 36, 2-Methylbenzyl 6-methyl-2-oxo-4-phenyl-1,2,3,4-tetrahydropyrimidine-5-carboxylate] | – | 157 to 159 | IC50 [1, 4]: 250 nM
CC1=C(C(=O)OCc2ccc(F)cc2)C(c2ccccc2)NC(=O)N1 (stereo not shown) [Compound 35, 4-Fluorobenzyl 6-methyl-2-oxo-4-phenyl-1,2,3,4-tetrahydropyrimidine-5-carboxylate] | – | 196 to 197 | IC50 [1, 4]: 200 nM
CC1=C(C(=O)OCc2ccccc2Cl)C(c2ccccc2)NC(=O)N1 (stereo not shown) [Compound 33, 2-Chlorobenzyl 6-methyl-2-oxo-4-phenyl-1,2,3,4-tetrahydropyrimidine-5-carboxylate] | – | 193 to 195 | IC50 [1, 4]: 350 nM
CC1=C(C(=O)OCc2ccccc2)C(c2ccccc2)NC(=O)N1 (stereo not shown) [Compound 32, Benzyl 6-methyl-2-oxo-4-phenyl-1,2,3,4-tetrahydropyrimidine-5-carboxylate] | – | 174 to 175 | IC50 [1, 4]: 190 nM
COc1ccc(COC(=O)C2=C(C)NC(=O)NC2c2cccc(Br)c2)cc1 (stereo not shown) [Compound 21, 4-Methoxybenzyl 4-(3-bromophenyl)-6-methyl-2-oxo-1,2,3,4-tetrahydropyrimidine-5-carboxylate] | – | 164 to 166 | IC50 [1, 5]: 350 nM
COc1ccc(COC(=O)C2=C(C)NC(=O)NC2c2ccc(C)o2)cc1 (stereo not shown) [Compound 29, 4-Methoxybenzyl 6-methyl-2-oxo-4-(5-methylfuran-2-yl)-1,2,3,4-tetrahydropyrimidine-5-carboxylate] | – | 157 to 159 | IC50 [1, 5]: 90 nM
COc1ccc(COC(=O)C2=C(C3CCCCC3)NC(=O)NC2c2ccccc2)cc1 (stereo not shown) [Compound 43, 4-Methoxybenzyl 6-cyclohexyl-2-oxo-4-phenyl-1,2,3,4-tetrahydropyrimidine-5-carboxylate] | 850 | – | –
COc1ccc(COC(=O)C2=C(CC(C)C)NC(=O)NC2c2ccccc2)cc1 (stereo not shown) [Compound 41, 4-Methoxybenzyl 2-oxo-6-isobutyl-4-phenyl-1,2,3,4-tetrahydropyrimidine-5-carboxylate] | 550 | – | –
COc1cccc(COC(=O)C2=C(C)N(C)C(=O)N(C)C2c2ccco2)c1 (stereo not shown) [Compound 57, 3-methoxybenzyl 4-(furan-2-yl)-1,3,6-trimethyl-2-oxo-1,2,3,4-tetrahydropyrimidine-5-carboxylate] | – | – | IC50 [1, 3]: 0.065 nM
CC1=C(C(=O)OCc2ccc3c(c2)OCO3)C(c2ccco2)N(C)C(=O)N1C (stereo not shown) [Compound 61, benzo[d][1,3]dioxol-5-ylmethyl 4-(furan-2-yl)-1,3,6-trimethyl-2-oxo-1,2,3,4-tetrahydropyrimidine-5-carboxylate] | – | – | IC50 [1, 3]: 0.85 nM
[O-][Cl+3]([O-])([O-])O [Sodium perchlorate, reference compound] | – | – | IC50 ([1]; assay control, read-out: IC50, iodide entrapment in FRTL5 cells, assay control): 100 nM
COc1cccc(COC(=O)C2=C(C)NC(=O)NC2c2ccccc2)c1 (stereo not shown) [Compound 37, 3-Methoxybenzyl 6-methyl-2-oxo-4-phenyl-1,2,3,4-tetrahydropyrimidine-5-carboxylate] | – | – | IC50 [1, 4]: 50 nM
CC1=C(C(=O)OCc2ccc3c(c2)OCO3)C(c2ccccc2)NC(=O)N1 (stereo not shown) [Compound 38, Benzo[d][1,3]dioxol-5-ylmethyl 6-methyl-2-oxo-4-phenyl-1,2,3,4-tetrahydropyrimidine-5-carboxylate] | – | – | IC50 [1, 4]: 80 nM
COc1ccc(COC(=O)C2=C(C)N(C)C(=O)N(C)C2c2ccccc2)cc1 (stereo not shown) [Compound 51, 4-Methoxybenzyl 1,3,6-trimethyl-2-oxo-4-phenyl-1,2,3,4-tetrahydropyrimidine-5-carboxylate] | – | – | IC50 [1, 6]: 65 nM
COc1ccc(COC(=O)C2=C(C)N(C)C(=O)N(C)C2c2ccco2)cc1 (stereo not shown) [Compound 54, 4-methoxybenzyl 4-(furan-2-yl)-1,3,6-trimethyl-2-oxo-1,2,3,4-tetrahydropyrimidine-5-carboxylate] | – | – | IC50 [1, 3]: 1.6 nM
